System: human corneal fibroblasts (HCF)
Assay: Time course of nuclear translocation (CD44-ICD, TAK1, JNK1, Cyclin D1, p75NTR) and CD44 immunoprecipitation in HCF treated with HC-HA/PTX3±TGFβ1±inhibitors
Assay type: cell-based
Conditions: HC-HA/PTX3+TGFβ1 with inhibitor 10 μM; for nuclear translocation of CD44-ICD at 5 min: immunostaining and Western blotting
Protocol: Human corneal fibroblasts (P3) were seeded on plastics with or without immobilized HC-HA/PTX3 complex for 72 h in DMEM+10% FBS, then serum starved for 24 h and treated with or without TGFβ1 for 24 h before being harvested for mRNA quantitation or immunostaining. For determination of protein of TGFβ receptor or p75NTR, the cells were treated with or without TGF-β1 for 48 h before collection of protein samples because the protein expression lags behind mRNA expression. For TGF-β1 ELISA, the cells were treated with or without TGF-β1 for 24 h, and then cultured in the fresh medium for another 24 h. The supernatants were collected for TGFβ1 ELISA. For TGFβ2 and TGFβ3 ELISA, the cells were treated with or without TGFβ1 for 48 h. Certain HCF were seeded on glass in DMEM+10% FBS for 24 h, then in DMEM+ITS (insulin-transferrin-selenium) for 24 h, treated with/without PBS or hyaluronic acid (HA) or HC-HA/PTX3±TGFβ1 (10 ng/ml)±Marimastat (10 μM) or ±DAPT (10 μM) or ±both for 0, 5, 15, 30 and 45 minutes before being harvested for immunostaining of CD44-ICD, JNK1, Cyclin D1 and p75NTR and for 5 minutes before being harvested for Western blotting of cytoplasmic and nuclear CD44-ICD, active MT1-MMP, and active γ-secretase after compartmental separation of the cellular components.
HCF, induced human corneal endothelial cells (HCEC), and HCEC monolayer cultures were air-dried and fixed in 4% formaldehyde, pH 7.0, for 15 min at room temperature, rehydrated in PBS, incubated with 0.2% Triton X-100 for 15 min, and rinsed three times with PBS for 5 min each. After incubation with 2% BSA to block non-specific staining for 30 min, they were incubated with the desired first antibody (all at 1:50 dilution) for 16 h at 4° C. After three washes with PBS, they were incubated with corresponding Alexa-Fluor-conjugated secondary IgG (all 1:100 dilutions) for 60 min. The samples were then counterstained with Hoechst 33342 and analyzed with Zeiss LSM 700 confocal microscope (Thornhood, N.Y.). Corresponding mouse and rabbit sera were used as negative controls for primary monoclonal and polyclonal antibodies, respectively.
The native CD44 protein was immune-precipitated by Immunoprecipitation Kit (Abcam, ab206996) with CD44 antibody (Abcam, ab157107) following the vendor's instructions.
Cell lysates were prepared in radioimmunoprecipitation assay (RIPA) buffer or non-denature lysis buffer and resolved on 4-15% (w/v) gradient acrylamide gels for Western blotting. […] Immunoreactive proteins were detected with Western Lighting Chemiluminesence.

| SMILES | nuclear translocation of TAK1, JNK1, Cyclin D1 and p75NTR at later time points | nuclear translocation of CD44-ICD at 5 min |
| --- | --- | --- |
| C[C@H](NC(=O)Cc1cc(F)cc(F)c1)C(=O)N[C@H](C(=O)OC(C)(C)C)c1ccccc1 [DAPT] | inhibited | inhibited |
| CNC(=O)[C@@H](NC(=O)[C@H](CC(C)C)[C@H](O)C(=O)NO)C(C)(C)C [Marimastat] | inhibited | inhibited |
